In patent US12428406B2 (PMV Pharmaceuticals, Inc., priority 2019, dated 2025):

Biological target: T1, p53 Y220C (Homo sapiens, UniProt P04637, Y220C)
T1 construct: The recombinant protein was a truncation mutant containing only amino acids 94-312 of p53; made in house; host or cells: E. coli
Assay: In vitro DNA binding activity assay (HTRF / TR-FRET): stabilization of p53 Y220C and increase of its DNA binding activity
Type: biochemical
Details: recombinant His-tagged p53 Y220C DNA binding domain (aa 94-312), biotin-labeled consensus DNA, incubated at 27° C. or 29° C. for 60 min
In short: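 Compound effect on DNA binding of recombinant His-p53 Y220C (E. coli) to biotin-labeled consensus DNA, expressed as SC150, the concentration giving 50% increase versus untreated. Serial 3-fold DMSO dilutions of 4.5 mM stocks; room-temperature steps of 15 then 20 min.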

T1 sequence (P04637 94-312, change not shown): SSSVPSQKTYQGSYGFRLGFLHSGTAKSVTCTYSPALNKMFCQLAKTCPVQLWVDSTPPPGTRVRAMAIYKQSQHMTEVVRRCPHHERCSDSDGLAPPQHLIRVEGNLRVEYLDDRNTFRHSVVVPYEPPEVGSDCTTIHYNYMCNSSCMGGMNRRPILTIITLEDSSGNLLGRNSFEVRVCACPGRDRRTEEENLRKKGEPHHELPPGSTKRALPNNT

| SC150 (concentration of the compound required to increase the DNA binding activity by 50%) | Structure (SMILES) |
| --- | --- |
| + (+ = 0 μM ≤ SC150 < 0.05 μM) | CCN(CC)[C@H]1CC[C@H](Nc2cccc3c2cc(C#CCNc2ccc(S(=O)(=O)NC)cc2OC)n3CC(F)(F)F)CC1 [Compound 148A, 3-methoxy-N-methyl-4-{[3-(4-{[(1R,4R)-4-(diethylamino)cyclohexyl]amino}-1-(2,2,2-trifluoroethyl)-1H-indol-2-yl)prop-2-yn-1-yl]amino}benzene-1-sulfonamide] |
| + (+ = 0 μM ≤ SC150 < 0.05 μM) | COCCN(C)[C@H]1CC[C@H](Nc2cccc3c2cc(C#CCNc2ccc(S(C)(=O)=O)cc2OCC#N)n3CC(F)(F)F)CC1 [Compound 149A] |
| + (+ = 0 μM ≤ SC150 < 0.05 μM) | COCCN(C)[C@H]1CC[C@@H](Nc2cccc3c2cc(C#CCNc2ccc(S(C)(=O)=O)cc2OCC#N)n3CC(F)(F)F)CC1 [Compound 150A] |
| + (+ = 0 μM ≤ SC150 < 0.05 μM) | CNC(=O)c1ccc(NCC#Cc2cc3c(N[C@H]4CC[C@H](N(C)CCOC)CC4)cccc3n2CC(F)(F)F)c(OC)c1 [Compound 151A, 3-methoxy-N-methyl-4-{[3-(4-{[(1R,4R)-4-[(2-methoxyethyl) (methyl)amino]cyclo-hexyl]amino}-1-(2,2,2-trifluoroethyl)-1H-indol-2-yl)prop-2-yn-1-yl]amino}benzamide] |
| + (+ = 0 μM ≤ SC150 < 0.05 μM) | CNC(=O)c1ccc(NCC#Cc2cc3c(N[C@H]4CC[C@@H](N(C)CCOC)CC4)cccc3n2CC(F)(F)F)c(OC)c1 [Compound 152A, 3-methoxy-N-methyl-4-{[3-(4-{[(1S,4S)-4-[(2-methoxyethyl) (methyl)amino]cyclohexyl]amino}-1-(2,2,2-trifluoroethyl)-1H-indol-2-yl)prop-2-yn-1-yl]amino}benzamide] |
| + (+ = 0 μM ≤ SC150 < 0.05 μM) | CCNC(=O)c1ccc(NCC#Cc2cc3c(N[C@H]4CC[C@H](N(C)CCOC)CC4)cccc3n2CC(F)(F)F)c(OC)c1 [Compound 153A, N-ethyl-3-methoxy-4-((3-(4-((4-((2-methoxyethyl)(methyl)amino)cyclohexyl)amino)-1-(2,2,2-trifluoroethyl)-1H-indol-2-yl)prop-2-yn-1-yl)amino)benzamide] |
| + (+ = 0 μM ≤ SC150 < 0.05 μM) | COCCN(C)[C@H]1CC[C@H](Nc2cccc3c2cc(C#CCNc2ccc(S(C)(=O)=O)cc2OCF)n3CC(F)(F)F)CC1 [Compound 155A, (1R,4R)—N^1-(2-(3-((2-(fluoromethoxy)-4-(methylsulfonyl)phenyl)amino)prop-1-yn-1-yl)-1-(2,2,2-trifluoroethyl)-1H-indol-4-yl)-N^4-(2-methoxyethyl)-N^4-methylcyclohexane-1,4-diamine] |
| + (+ = 0 μM ≤ SC150 < 0.05 μM) | COCCN(C)[C@H]1CC[C@H](Nc2cccc3c2cc(C#CCNc2ccc(S(N)(=O)=O)cc2OC)n3CC(F)(F)F)CC1 [Compound 160A, 3-methoxy-4-{[3-(4-{[(1R,4R)-4-[(2-methoxyethyl)(methyl)amino]cyclohexyl]amino}-1-(2,2,2-trifluoroethyl)-1H-indol-2-yl)prop-2-yn-1-yl]amino}benzene-1-sulfonamide] |
| + (+ = 0 μM ≤ SC150 < 0.05 μM) | CCN(CC)[C@H]1CC[C@H](Nc2cccc3c2cc(C#CCNc2ccc(S(C)(=O)=O)cc2OC)n3CC(F)(F)F)CC1 [Compound 162A, (1R,4R)-N^1,N^1-diethyl-N4-(2-{3-[(4-methanesulfonyl-2-methoxyphenyl)amino]prop-1-yn-1-yl}-1-(2,2,2-trifluoroethyl)-1H-indol-4-yl)cyclohexane-1,4-diamine] |
| + (+ = 0 μM ≤ SC150 < 0.05 μM) | COCCN(C)[C@H]1CC[C@H](Nc2cccc3c2cc(C#CCNc2ccc(S(N)(=O)=O)cc2OCC#N)n3CC(F)(F)F)CC1 [Compound 164A, 3-(cyanomethoxy)-4-{[3-(4-{[(1R,4R)-4-[(2-methoxyethyl) (methyl)amino]cyclo-hexyl]amino}-1-(2,2,2-trifluoroethyl)-1H-indol-2-yl)prop-2-yn-1-yl]amino}benzene-1-sulfonamide] |
| + (+ = 0 μM ≤ SC150 < 0.05 μM) | COCCN(C)[C@H]1CC[C@@H](Nc2cccc3c2cc(C#CCNc2ccc(S(N)(=O)=O)cc2OCC#N)n3CC(F)(F)F)CC1 [Compound 165A, 3-(cyanomethoxy)-4-{[3-(4-{[(1S,4S)-4-[(2-methoxyethyl)(methyl)amino]cyclohexyl]amino}-1-(2,2,2-trifluoroethyl)-1H-indol-2-yl)prop-2-yn-1-yl]amino}benzene-1-sulfonamide] |
| + (+ = 0 μM ≤ SC150 < 0.05 μM) | COCCN(CCOC)[C@H]1CC[C@H](Nc2cccc3c2cc(C#CCNc2ccc(S(N)(=O)=O)cc2OCF)n3CC(F)(F)F)CC1 [Compound 166A, 3-(fluoromethoxy)-4-{[3-(4-{[(1R,4R)-4-[bis(2-methoxyethyl)amino]cyclohexyl]amino}-1-(2,2,2-trifluoro-ethyl)-1H-indol-2-yl)prop-2-yn-1-yl]amino} benzene-1-sulfonamide] |
| + (+ = 0 μM ≤ SC150 < 0.05 μM) | COCCN(C)[C@H]1CC[C@H](Nc2cccc3c2cc(C#CCNc2ccc(S(N)(=O)=O)cc2OCF)n3CC(F)(F)F)CC1 [Compound 168A, 3-(fluoromethoxy)-4-{[3-(4-{[(1R,4R)-4-[(2-methoxyethyl)(methyl)amino]cyclohexyl]amino}-1-(2,2,2-trifluoro-ethyl)-1H-indol-2-yl)prop-2-yn-1-yl]amino}benzene-1-sulfonamide] |
| + (+ = 0 μM ≤ SC150 < 0.05 μM) | COc1cc(C(N)=O)ccc1NCC#Cc1cc2c(N[C@H]3CC[C@H](N4CCOCC4)CC3)cccc2n1CC(F)(F)F [Compound 170A, 3-methoxy-4-{[3-(4-{[(1R,4R)-4-(morpholin-4-yl)cyclohexyl]amino}-1-(2,2,2-trifluoroethyl)-1H-indol-2-yl)prop-2-yn-1-yl]amino}benzamide] |
| + (+ = 0 μM ≤ SC150 < 0.05 μM) | COc1cc(C(N)=O)ccc1NCC#Cc1cc2c(N[C@H]3CC[C@@H](N4CCOCC4)CC3)cccc2n1CC(F)(F)F [Compound 171A, 3-methoxy-4-{[3-(4-{[(1S,4S)-4-(morpholin-4-yl)cyclohexyl]amino}-1-(2,2,2-trifluoroethyl)-1H-indol-2-yl)prop-2-yn-1-yl]amino}benzamide] |
| + (+ = 0 μM ≤ SC150 < 0.05 μM) | CNC(=O)c1ccc(NCC#Cc2cc3c(N[C@H]4CC[C@H](N5CCOCC5)CC4)cccc3n2CC(F)(F)F)c(OC)c1 [Compound 172A, 3-methoxy-N-methyl-4-{[3-(4-{[(1R,4R)-4-(morpholin-4-yl)cyclohexyl]amino}-1-(2,2,2-trifluoroethyl)-1H-indol-2-yl)prop-2-yn-1-yl]amino}benzamide] |
| + (+ = 0 μM ≤ SC150 < 0.05 μM) | CNC(=O)c1ccc(NCC#Cc2cc3c(N[C@H]4CC[C@@H](N5CCOCC5)CC4)cccc3n2CC(F)(F)F)c(OC)c1 [Compound 173A, 3-methoxy-N-methyl-4-{[3-(4-{[(1S,4S)-4-(morpholin-4-yl)cyclohexyl]amino}-1-(2,2,2-trifluoro-ethyl)-1H-indol-2-yl)prop-2-yn-1-yl]amino}benzamide] |
| + (+ = 0 μM ≤ SC150 < 0.05 μM) | COc1cc(S(C)(=O)=O)ccc1NCC#Cc1cc2c(N[C@H]3CC[C@H](N4CCOCC4)CC3)cccc2n1CC#N [Compound 174A, 2-(2-{3-[(4-methane-sulfonyl-2-methoxy-phenyl)amino]prop-1-yn-1-yl}-4-{[(1R,4R)-4-(morpholin-4-yl)cyclo-hexyl]amino}-1H-indol-1-yl)acetonitrile] |
| ++ (++ = 0.05 μM ≤ SC150 < 0.1 μM) | CNC(=O)c1ccc(NCC#Cc2cc3c(N[C@H]4CC[C@H](N5CCOCC5)CC4)cccc3n2CCF)c(OC)c1 [Compound 175A, 4-({3-[1-(2-fluoro-ethyl)-4-{[(1R,4R)-4-(morpholin-4-yl)cyclohexyl]amino}-1H-indol-2-yl]prop-2-yn-1-yl}amino)-3-methoxy-N-methylbenzamide] |
| + (+ = 0 μM ≤ SC150 < 0.05 μM) | COc1cc(S(C)(=O)=O)ccc1NCC#Cc1cc2c(N[C@H]3CC[C@H](N4CCOCC4)CC3)cccc2n1CCF [Compound 176A, 1-(2-fluoroethyl)-2-{3-[(4-methane-sulfonyl-2-methoxy-phenyl)amino]prop-1-yn-1-yl}-N-[(1R,4R)-4-(morpholin-4-yl)cyclo-hexyl]-1H-indol-4-amine] |
| + (+ = 0 μM ≤ SC150 < 0.05 μM) | CNC(=O)c1ccc(NCC#Cc2cc3c(N[C@H]4CC[C@H](N5CCOCC5)CC4)cccc3n2CC#N)c(OC)c1 [Compound 177A, 4-({3-[1-(cyanomethyl)-4-{[(1R,4R)-4-(morpholin-4-yl)cyclohexyl]amino}-1H-indol-2-yl]prop-2-yn-1-yl}amino)-3-methoxy-N-methyl-benzamide] |
| + (+ = 0 μM ≤ SC150 < 0.05 μM) | CCCn1c(C#CCNc2ccc(S(C)(=O)=O)cc2OC)cc2c(N[C@H]3CC[C@H](N4CCOCC4)CC3)cccc21 [Compound 178A, 2-{3-[(4-methane-sulfonyl-2-methoxy-phenyl)amino]prop-1-yn-1-yl}-1-propyl-N-[(1R,4R)-4-(morpholin-4-yl)cyclohexyl]-1H-indol-4-amine] |
